Like-named read-outs stand apart in the source and are kept apart here. *1 amine or outer side, *2 acyl side, *3 side chain or, on linkers, in order; H or OH if unused. Where a SMILES comes first, the peptide text is derived from it. Bridges are numbered along the chain shown (N, C = ends). [ ]: non-standard residue; d: D form. The star is where a group is joined. ξ: configuration not given here. Bip(4'-NHAc) = CC(=O)Nc1ccc(-c2ccc(C[C@H](N)C(=O)O)cc2)cc1; Phe(3-CF3) = N[C@@H](Cc1cccc(C(F)(F)F)c1)C(=O)O; Phe(4-CONH2) = NC(=O)c1ccc(C[C@H](N)C(=O)O)cc1; Phe(4-COOH) = N[C@@H](Cc1ccc(C(=O)O)cc1)C(=O)O; Bip = N[C@@H](Cc1ccc(-c2ccccc2)cc1)C(=O)O; Phe(3-Me) = Cc1cccc(C[C@H](N)C(=O)O)c1; Ethylenediamine = C(CN[*:2])N[*:1]; Val(3-OH) = CC(C)(O)[C@H](N)C(=O)O; Ala(cPr) = N[C@@H](CC1CC1)C(=O)O; 3Pal = N[C@@H](Cc1cccnc1)C(=O)O; 4Pal = N[C@@H](Cc1ccncc1)C(=O)O; Cha = N[C@@H](CC1CCCCC1)C(=O)O; Cit = NC(=O)NCCC[C@H](N)C(=O)O; Ile(3ξ) = CCC(C)[C@H](N)C(=O)O; Thr(3ξ) = CC(O)[C@H](N)C(=O)O; Carboxymethyl = O=C(O)C*; Nle = CCCC[C@H](N)C(=O)O; Orn = NCCC[C@H](N)C(=O)O; Dab = NCC[C@H](N)C(=O)O; Dap = NC[C@H](N)C(=O)O; Bn = c1ccc(C*)cc1

For orientation: IC50 means the point on the concentration scale where inhibition reaches its midpoint.

The target in the assay is T1, human PD-1 / PD-L1-Ig binding on Jurkat cell line over-expressing human PD-1 (Jurkat-PD-1) (Homo sapiens, UniProt Q15116).
T1 construct: expressed in transfected cells; host or cells: Jurkat
T1 sequence (Q15116 25-288): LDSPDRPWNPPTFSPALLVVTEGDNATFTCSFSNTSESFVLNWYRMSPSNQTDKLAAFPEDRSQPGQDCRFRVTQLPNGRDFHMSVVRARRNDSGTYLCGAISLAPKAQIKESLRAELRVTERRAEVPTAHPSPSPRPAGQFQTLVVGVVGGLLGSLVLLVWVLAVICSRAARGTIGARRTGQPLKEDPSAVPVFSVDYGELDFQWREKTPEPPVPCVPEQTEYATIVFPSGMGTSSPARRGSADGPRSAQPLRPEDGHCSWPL
The assay is described as follows: Jurkat-PD-1 Cell Binding High-Content Screening Assay (CBA). The class given is cell-based. In a few lines: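 Binding of fluorescent PD-L1-Ig (phycoerythrin linked via the Ig tag, 20 nM final) to PD-1-overexpressing Jurkat cells was imaged after a 2 h, 37° C compound pretreatment and 1 hour ligand incubation.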

Where [1] appears, read: Jurkat-PD-1 cells, PE-labeled PD-L1-Ig 20 nM final; read-out: Jurkat HPD1_PDL1 IC50.

In the case of `Cc1cccc(C[C@@H]2NC(=O)[C@H](CC(=O)O)NC(=O)[C@H](Cc3ccncc3)NC(=O)[C@H](Cc3ccc(OCC(=O)O)cc3)NC(=O)CSC[C@@H](C(=O)N[C@@H](C)C(N)=O)NC(=O)[C@H]([C@@H](C)O)NC(=O)[C@H](C(C)C)NC(=O)[C@H](CC3CCCCC3)NC(=O)[C@H](CCN)NC(=O)[C@@H](CC(C)C)NC(=O)[C@H](CCCN)NC(=O)[C@H](C(C)C)NC(=O)[C@H](Cc3ccc(-c4ccccc4)cc3)NC(=O)[C@H](C(C)C)NC2=O)c1` [Compound 1329] ({CH2CO}-Y(Carboxymethyl)[4Pal]D[Phe(3-Me)]V[Bip]V[Orn][dL][Dab][Cha]VTCA-NH2; thioether N-14), under setting [1], the IC50 stood at 6.8 nM. For the molecule `CCCC[C@@H]1NC(=O)[C@H](CCN)NC(=O)[C@@H](CC(C)C)NC(=O)[C@H](CCCN)NC(=O)[C@H](C(C)C)NC(=O)[C@H](Cc2ccc(-c3ccccc3)cc2)NC(=O)[C@H](C(C)C)NC(=O)[C@H](Cc2c[nH]c3ccccc23)NC(=O)[C@H](CC(=O)O)NC(=O)[C@H](Cc2ccc(O)cc2)NC(=O)[C@H](CN)NC(=O)CSC[C@@H](C(=O)N[C@@H](C)C(N)=O)NC(=O)[C@H]([C@@H](C)O)NC(=O)[C@H](C(C)C)NC1=O` [Compound 1169] ({CH2CO}-[Dap]YDWV[Bip]V[Orn][dL][Dab][Nle]VTCA-NH2; thioether N-14), the half-maximal inhibitory concentration (IC50) under setting [1] came to 20.7 nM. For the molecule `CCC(C)[C@@H]1NC(=O)[C@H](Cc2ccc(-c3ccccc3)cc2)NC(=O)[C@H](C(C)C)NC(=O)[C@H](Cc2c[nH]c3ccccc23)NC(=O)[C@H](CC(=O)O)NC(=O)[C@H](Cc2cccnc2)NC(=O)[C@H](CN)NC(=O)CSC[C@@H](C(=O)N[C@@H](C)C(N)=O)NC(=O)[C@H]([C@@H](C)O)NC(=O)[C@H](C(C)C)NC(=O)[C@H](CC2CCCCC2)NC(=O)[C@H](CCN)NC(=O)[C@@H](CC(C)C)NC(=O)[C@H](CCCN)NC1=O` (stereo partly drawn) [Compound 2230] ({CH2CO}-[Dap][3Pal]DWV[Bip][Ile(3ξ)][Orn][dL][Dab][Cha]VTCA-NH2; thioether N-14), the IC50 under setting [1] was 16.1 nM. Still for that read-out and setting: under `CCCC[C@@H]1NC(=O)CSC[C@@H](C(=O)N[C@@H](CCN)C(N)=O)NC(=O)[C@H](CO)NC(=O)[C@H](C(C)(C)O)NC(=O)[C@H](CC2CCCCC2)NC(=O)[C@H](CCN)NC(=O)[C@@H](CC(C)C)NC(=O)[C@H](CCCN)NC(=O)[C@H](Cc2ccc(C(=O)O)cc2)NC(=O)[C@H](Cc2ccc(-c3ccccc3)cc2)NC(=O)[C@H](Cc2ccc(C(=O)O)cc2)NC(=O)[C@H](Cc2cccc(C(F)(F)F)c2)NC(=O)[C@H](CC(N)=O)NC(=O)[C@H](Cc2ccc(C(=O)O)cc2)NC1=O` [Example 2718] ({CH2CO}-[Nle][Phe(4-COOH)]N[Phe(3-CF3)][Phe(4-COOH)][Bip][Phe(4-COOH)][Orn][dL][Dab][Cha][Val(3-OH)]SC[Dab]-NH2; thioether N-14) stands 330 nM; under `CC(C)C[C@H]1NC(=O)[C@H](CCCN)NC(=O)[C@H](CCC(=O)O)NC(=O)[C@H](Cc2ccc(-c3ccccc3)cc2)NC(=O)[C@H](C(C)C)NC(=O)[C@H](Cc2c[nH]c3ccccc23)NC(=O)[C@H](COCc2ccccc2)NC(=O)[C@H](Cc2ccc(OCC(=O)O)cc2)NC(=O)[C@H](CN)NC(=O)CSC[C@@H](C(=O)N[C@@H](C)C(N)=O)NC(=O)[C@H]([C@@H](C)O)NC(=O)[C@H](C(C)C)NC(=O)[C@H](CC2CCCCC2)NC(=O)[C@H](CCN)NC1=O` [Compound 1497] ({CH2CO}-[Dap]Y(Carboxymethyl)S(Bn)WV[Bip]E[Orn][dL][Dab][Cha]VTCA-NH2; thioether N-14), 344 nM; under `Cc1cccc(C[C@@H]2NC(=O)[C@H](CC(=O)O)NC(=O)[C@H](Cc3ccc(OCC(=O)O)cc3)NC(=O)[C@H](C(C)O)NC(=O)CSC[C@@H](C(=O)N[C@@H](CN)C(=O)NCCN)NC(=O)[C@H](C(C)O)NC(=O)[C@H](C(C)(C)O)NC(=O)[C@H](CC3CCCCC3)NC(=O)[C@H](CCN)NC(=O)[C@@H](CC(C)C)NC(=O)[C@H](CCCN)NC(=O)[C@H](Cc3ccc(O)cc3)NC(=O)[C@H](Cc3ccc(-c4ccccc4)cc3)NC(=O)[C@H](Cc3ccc(C(N)=O)cc3)NC2=O)c1` (stereo partly drawn) [Compound 2664] ({CH2CO}-[Thr(3ξ)]Y(Carboxymethyl)D[Phe(3-Me)][Phe(4-CONH2)][Bip]Y[Orn][dL][Dab][Cha][Val(3-OH)][Thr(3ξ)]C[Dap]-Ethylenediamine; thioether N-14), 15.2 nM.

As to `CC(=O)Nc1ccc(-c2ccc(C[C@@H]3NC(=O)[C@H](CN)NC(=O)CSC[C@@H](C(=O)N[C@@H](C)C(N)=O)NC(=O)[C@H]([C@@H](C)O)NC(=O)[C@H](C(C)C)NC(=O)[C@H](CC4CCCCC4)NC(=O)[C@H](CCN)NC(=O)[C@@H](CC(C)C)NC(=O)[C@H](CCCN)NC(=O)[C@H](CCCNC(N)=O)NC(=O)[C@H](Cc4ccc(-c5ccccc5)cc4)NC(=O)[C@H](C(C)C)NC(=O)[C@H](Cc4c[nH]c5ccccc45)NC(=O)[C@H](CC(=O)O)NC3=O)cc2)cc1` [Compound 2124] ({CH2CO}-[Dap][Bip(4'-NHAc)]DWV[Bip][Cit][Orn][dL][Dab][Cha]VTCA-NH2; thioether N-14), under setting [1], the half-maximal inhibitory concentration (IC50) was determined as 22.6 nM. As for `Cc1ccccc1C[C@@H]1NC(=O)[C@H](CC(=O)O)NC(=O)[C@H](Cc2ccc(OCC(=O)O)cc2)NC(=O)[C@H](CN)NC(=O)CSC[C@@H](C(=O)N[C@@H](C)C(N)=O)NC(=O)[C@H]([C@@H](C)O)NC(=O)[C@H](C(C)C)NC(=O)[C@H](CC2CCCCC2)NC(=O)[C@H](CCN)NC(=O)[C@@H](CC(C)C)NC(=O)[C@H](CCCN)NC(=O)[C@H](CCC(=O)O)NC(=O)[C@H](Cc2ccc(-c3ccccc3)cc2)NC(=O)[C@H](C(C)C)NC1=O` [Compound 2151], the 50% inhibitory concentration (IC50) under setting [1] came to 12.1 nM.

For `CC(C)C[C@H]1NC(=O)[C@H](CCCN)NC(=O)[C@H](CCC(=O)O)NC(=O)[C@H](Cc2ccc(-c3ccccc3)cc2)NC(=O)[C@H](C(C)C)NC(=O)[C@H](Cc2c[nH]c3ccccc23)NC(=O)[C@H](CC(=O)O)NC(=O)[C@H](Cc2ccncc2)NC(=O)[C@H](Cc2ccncc2)NC(=O)CSC[C@@H](C(=O)N[C@@H](C)C(N)=O)NC(=O)[C@H]([C@@H](C)O)NC(=O)[C@H](C(C)C)NC(=O)[C@H](CC2CCCCC2)NC(=O)[C@H](CCN)NC1=O` [Compound 2197] ({CH2CO}-[4Pal][4Pal]DWV[Bip]E[Orn][dL][Dab][Cha]VTCA-NH2; thioether N-14), the IC50 under setting [1] amounted to 8.2 nM. Consider `CCC(C)[C@@H]1NC(=O)[C@H](CC2CCCCC2)NC(=O)[C@H](CCN)NC(=O)[C@@H](CC(C)C)NC(=O)[C@H](CCCN)NC(=O)[C@H](C(C)CC)NC(=O)[C@H](Cc2ccc(-c3ccccc3)cc2)NC(=O)[C@H](C(C)CC)NC(=O)[C@H](Cc2c[nH]c3ccccc23)NC(=O)[C@H](CC(=O)O)NC(=O)[C@H](Cc2ccc(OCC(=O)O)cc2)NC(=O)[C@H](C(C)O)NC(=O)CSC[C@@H](C(=O)N2CCC[C@H]2C(N)=O)NC(=O)[C@H](CO)NC1=O` (stereo partly drawn) [Compound 2583] ({CH2CO}-[Thr(3ξ)]Y(Carboxymethyl)DW[Ile(3ξ)][Bip][Ile(3ξ)][Orn][dL][Dab][Cha][Ile(3ξ)]SCP-NH2; thioether N-14), for which, where the note is “read-out: Jurkat HPD1_PDL1 IC50; Jurkat-PD-1 cells, PE-labeled PD-L1-Ig 20 nM final”, the 50% inhibitory concentration (IC50) was 122 nM.

As for `CC(C)C[C@H]1NC(=O)[C@H](CCCN)NC(=O)[C@H](CCCNC(N)=O)NC(=O)[C@H](Cc2ccc(-c3ccccc3)cc2)NC(=O)[C@H](CC2CC2)NC(=O)[C@H](Cc2c[nH]c3ccccc23)NC(=O)[C@H](CC(=O)O)NC(=O)[C@H](Cc2ccc(OCC(=O)O)cc2)NC(=O)[C@H](CN)NC(=O)CSC[C@@H](C(=O)N[C@@H](C)C(N)=O)NC(=O)[C@H]([C@@H](C)O)NC(=O)[C@H](C(C)C)NC(=O)[C@H](CC2CCCCC2)NC(=O)[C@H](CCN)NC1=O` [Compound 1354] ({CH2CO}-[Dap]Y(Carboxymethyl)DW[Ala(cPr)][Bip][Cit][Orn][dL][Dab][Cha]VTCA-NH2; thioether N-14), under setting [1], the IC50 came to 13.9 nM. As to `CC(C)C[C@H]1NC(=O)[C@H](CCCN)NC(=O)[C@H](CCC(=O)O)NC(=O)[C@H](Cc2ccc(-c3ccccc3)cc2)NC(=O)[C@H](C(C)C)NC(=O)[C@H](Cc2c[nH]c3ccccc23)NC(=O)[C@H](CC(=O)O)NC(=O)[C@H](Cc2cccnc2)NC(=O)[C@H](CC(N)=O)NC(=O)CSC[C@@H](C(=O)N[C@@H](C)C(N)=O)NC(=O)[C@H]([C@@H](C)O)NC(=O)[C@H](C(C)C)NC(=O)[C@H](CC2CCCCC2)NC(=O)[C@H](CCN)NC1=O` [Compound 2170] ({CH2CO}-N[3Pal]DWV[Bip]E[Orn][dL][Dab][Cha]VTCA-NH2; thioether N-14), under setting [1], the IC50 was 5.4 nM. In the case of `CC(C)C[C@@H]1NC(=O)[C@H](Cc2c[nH]c3ccccc23)NC(=O)[C@H](CC(=O)O)NC(=O)[C@H](Cc2ccc(O)cc2)NC(=O)[C@H](Cc2ccccc2)NC(=O)CSC[C@@H](C(=O)N[C@@H](C)C(N)=O)NC(=O)[C@H]([C@@H](C)O)NC(=O)[C@H](C(C)C)NC(=O)[C@H](CC(C)C)NC(=O)[C@H](CCN)NC(=O)[C@@H](C)NC(=O)[C@H](CCN)NC(=O)[C@H](C(C)C)NC(=O)[C@H](Cc2ccc(-c3ccccc3)cc2)NC1=O` [Compound 1105] ({CH2CO}-FYDWL[Bip]V[Dab][dA][Dab]LVTCA-NH2; thioether N-14), under setting [1], the IC50 was determined as 102 nM. On to `CC(C)C[C@@H]1NC(=O)[C@H](CCCCN)NC(=O)[C@@H](CC(C)C)NC(=O)[C@H](CCCN)NC(=O)[C@H](Cc2cnc[nH]2)NC(=O)[C@H](Cc2ccc(-c3ccccc3)cc2)NC(=O)[C@H](C(C)C)NC(=O)[C@H](Cc2c[nH]c3ccccc23)NC(=O)[C@H](CC(=O)O)NC(=O)[C@H](Cc2ccc(O)cc2)NC(=O)[C@H](CC(N)=O)NC(=O)CSC[C@@H](C(=O)N[C@@H](C)C(N)=O)NC(=O)[C@H](CO)NC(=O)[C@H](C(C)C)NC1=O` [Compound 1134] ({CH2CO}-NYDWV[Bip]H[Orn][dL]KLVSCA-NH2; thioether N-14), for which the IC50 under setting [1] is 32.1 nM.

The values are drawn from patent US20250163104A1, “MACROCYCLIC IMMUNOMODULATORS” (priority 2021, published 2025).
